The values below come from ChEMBL document CHEMBL1201862, “PubChem BioAssay data set” (2004).

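Exposure lasted 48 hours, with cells grown in 96-well plates and compounds tested at five concentrations. GI50 marks 50% less growth.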 Activity calls are given as the source filed them. Cut-off read from the data, not from the text of the source: active = GI50 up to about 1.1 µM and inactive = higher.

Experiment in all cases: NCI anticancer screen, dose series, 48 h
Assay [1] deals with A549.
The test system of assay [2] is SK-OV-3.
The test system of assay [3] is OVCAR-5.
In assay [4] the test system is DU-145.
Assay [5] relates to SK-MEL-5.
Assay [6] relates to Malme-3M.
For assay [7], the system named is NCI-H23.
Assay [8] has as its system MDA-MB-231.
Assay [9] has as its system SNB-75.
Assay [10] has as its system NCI/ADR-RES.
In assay [11] the test system is PC-3.
Assay [12] has as its system A498.
Assay [13] concerns K562.
Assay [14] concerns UO-31.
Assay [15] deals with SF-539.
Assay [16] relates to MCF7.
For assay [17], the system named is HCT-15.
Assay [18] has as its system UACC-257.
Assay [19] concerns RPMI-8226.
Assay [20] relates to EKVX.

As for `COc1cc(OC)c2nc(C)c3c(c2c1)NCC3`, the GI50 in [1] is 11.8 µM (inactive); in assay [2], 14.3 µM (inactive); in [3], 6.28 µM (inactive); in [4], 21.6 µM (inactive); in [5], 10 µM (inactive); in [6], 10.4 µM (inactive). Further, the GI50 in assay [7] was 6.34 µM (inactive); in [8] it was 7.76 µM (inactive); in assay [9] it was 12.4 µM (inactive); in assay [10], 18.4 µM (inactive); in assay [11], 6.03 µM (inactive); in assay [12] it was 13.7 µM (inactive). Also, the GI50 in assay [13] is 0.776 µM (active); in [14], 8.73 µM (inactive); in [15], 4.32 µM (inactive); in assay [16], 3.94 µM (inactive); in assay [17], 12.1 µM; in assay [18] it was 3.91 µM (inactive).
In the case of `COc1ccc(-c2nc3ncccn3c2-c2ccc(S(C)(=O)=O)cc2)cc1`, the GI50 in assay [1] was > 100 µM (inactive); in assay [2], 90.4 µM (inactive); in assay [3], > 100 µM (inactive); in assay [4] it was > 100 µM (inactive); in [5], 48.2 µM (inactive); in assay [19] it was 41.7 µM (inactive). In addition, the GI50 in assay [7], in [8], in assay [9], in assay [10], in assay [11] and in assay [13] was > 100 µM (inactive) throughout. Further, the GI50 is > 100 µM (inactive) in assay [14]; > 100 µM (inactive) in assay [15]; 22.3 µM (inactive) in [16]; greater than 100 µM in [17]; > 100 µM (inactive) in assay [18].
Turning to `O=C(O)c1cc2ccccc2c(/N=N\c2cc(C(F)(F)F)ccc2Cl)c1O`, the GI50 is 27.9 µM (inactive) in [1]; > 100 µM (inactive) in [2]; > 100 µM (inactive) in assay [3]; 74.1 µM (inactive) in [4]; 70 µM (inactive) in assay [20]; 25.5 µM (inactive) in [5]. Further, the GI50 was 17.8 µM (inactive) in [19]; 37.4 µM (inactive) in assay [6]; 56.5 µM (inactive) in [7]; 18.3 µM (inactive) in assay [8]; 0.0169 µM (active) in assay [9]; 76.2 µM (inactive) in assay [10]. In addition, the GI50 is 48.6 µM (inactive) in [11]; 27 µM (inactive) in assay [13]; 33.4 µM (inactive) in assay [14]; 99.3 µM (inactive) in assay [15]; > 100 µM (inactive) in assay [16]; 83.8 µM in assay [17]. Further, in assay [18], the GI50 is 67.6 µM (inactive).
As to `O=C1NC(N2CCCC(CO)C2)=N/C1=C\c1ccc(Cl)cc1` (centres undefined), the GI50 in assay [1] is > 100 µM (inactive); in assay [2], > 100 µM (inactive); in assay [3], > 100 µM (inactive); in assay [4] it was > 100 µM (inactive); in [20], 49.1 µM (inactive); in [5] it was > 100 µM (inactive). Moreover, the GI50 in assay [19] is > 100 µM (inactive); in [6], > 100 µM (inactive); in [7] it was > 100 µM (inactive); in assay [8] it was > 100 µM (inactive); in assay [9] it was 51.1 µM (inactive); in assay [10], > 100 µM (inactive). Besides, the GI50 was > 100 µM (inactive) in assay [11]; > 100 µM (inactive) in assay [13]; 75 µM (inactive) in assay [14]; > 100 µM (inactive) in [15]; > 100 µM (inactive) in [16]; 77.6 µM in assay [17]. Further, in [18], the GI50 was > 100 µM (inactive).
Consider `[O-][S+](Nc1ccccc1)c1cccc(Cl)c1` (centres undefined), for which the GI50 in assay [1] was 39.7 µM (inactive); in assay [3], > 100 µM (inactive); in assay [4] it was 75 µM (inactive); in assay [20] it was 27 µM (inactive); in assay [5] it was 42.8 µM (inactive); in [19], 43.5 µM (inactive). For the same compound, the GI50 in assay [6] was > 100 µM (inactive); in [7] it was 42.7 µM (inactive); in assay [8], 66.1 µM (inactive); in assay [9], 76.6 µM (inactive); in assay [10], 34.6 µM (inactive); in assay [11], 65.9 µM (inactive). For the same compound, the GI50 was 37.3 µM (inactive) in assay [13]; 60.4 µM (inactive) in [14]; 27.5 µM (inactive) in [15]; > 100 µM (inactive) in [16]; 29.6 µM in [17]; > 100 µM (inactive) in [18].
As to `N=C(N)N/N=C/c1c(-c2ccc(Cl)cc2)nc2sc(Cl)cn12`, the GI50 was 1.7 µM (inactive) in assay [1]; 1.93 µM (inactive) in assay [2]; 1.67 µM (inactive) in assay [3]; 1.95 µM (inactive) in [4]; 1.85 µM (inactive) in assay [20]; 1.62 µM (inactive) in assay [5]. Moreover, the GI50 in assay [7] was 1.08 µM (active); in assay [8], 1.82 µM (inactive); in assay [9] it was 1.41 µM (inactive); in assay [10] it was 1.79 µM (inactive); in assay [11], 3 µM (inactive); in assay [12], 1.74 µM (inactive). For the same compound, the GI50 in assay [14] is 1.68 µM (inactive); in [15] it was 1.27 µM (inactive); in [16], 1.53 µM (inactive); in assay [17] it was 1.36 µM; in [18], 1.8 µM (inactive).
Turning to `Cc1c2ccnc(C(=O)NCCN(C)C)c2cc2c3cc(O)ccc3n(C)c12`, the GI50 in [1] is 0.0173 µM (active); in assay [2] it was 0.162 µM (active); in assay [3] it was 0.76 µM (active); in [4], 0.0649 µM (active); in [20], 0.957 µM (active); in assay [5] it was 0.149 µM (active). The GI50 in assay [19] is 0.0927 µM (active); in [6], 0.295 µM (active); in assay [7], 0.125 µM (active); in assay [8], 0.314 µM (active); in [9], 0.33 µM (active); in assay [10], 0.766 µM (active). In addition, the GI50 was 0.115 µM (active) in [11]; 0.123 µM (active) in [13]; 0.267 µM (active) in [14]; 0.0603 µM (active) in assay [15]; 0.082 µM (active) in assay [16]; 0.12 µM in assay [17]. For the same compound, the GI50 in [18] was 1.53 µM (inactive).
As to `Cc1c(N2C(=O)C(Cl)C2c2ccc(Cl)cc2)c(=O)n(-c2ccccc2)n1C` (centres undefined), the GI50 in [1] was > 100 µM (inactive); in assay [2], > 100 µM (inactive); in assay [3], > 100 µM (inactive); in assay [4], > 100 µM (inactive); in assay [20], 71 µM (inactive); in assay [5] it was > 100 µM (inactive). Further, the GI50 in assay [19] was 16 µM (inactive); in assay [6] it was > 100 µM (inactive); in assay [7] it was 23.9 µM (inactive); in [8] it was > 100 µM (inactive); in [10] it was > 100 µM (inactive); in assay [11] it was > 100 µM (inactive). Also, the GI50 was 45.5 µM (inactive) in [13]; > 100 µM (inactive) in [14]; 36.1 µM (inactive) in [15]; 41.6 µM (inactive) in [16]; 14.2 µM (inactive) in assay [18].
As to `O=C1C[C@H](c2ccccc2)O[C@@H](c2ccccc2)C1`, the GI50 in [1], in [2], in [3], in [4], in [20] and in assay [5] was > 100 µM (inactive) each time. Further, the GI50 in [19], in assay [6], in assay [7], in [8], in assay [9] and in assay [10] was > 100 µM (inactive) in each case. For the same compound, the GI50 in assay [11] was > 100 µM (inactive); in assay [13] it was 26.9 µM (inactive); in [14], > 100 µM (inactive); in [15], > 100 µM (inactive); in assay [16] it was 74.3 µM (inactive); in assay [17] it was greater than 100 µM. The GI50 in [18] is > 100 µM (inactive).
With `O=[N+]([O-])c1ccc2c(/N=N/c3c(O)ccc4ccccc34)c(O)cc(S(=O)(=O)O)c2c1`, the GI50 was 15.4 µM (inactive) in assay [1]; 36.4 µM (inactive) in assay [2]; 8.34 µM (inactive) in assay [3]; 36.1 µM (inactive) in [4]; > 50 µM (inactive) in [20]; 11.2 µM (inactive) in [5]. For the same compound, the GI50 is 8.26 µM (inactive) in [19]; 4.06 µM (inactive) in [6]; 20.9 µM (inactive) in assay [7]; 18 µM (inactive) in [8]; 21.9 µM (inactive) in assay [9]; 6.92 µM (inactive) in assay [10]. Moreover, the GI50 was 6.98 µM (inactive) in assay [11]; 9.16 µM (inactive) in [13]; 2.45 µM (inactive) in assay [14]; 16.5 µM (inactive) in assay [15]; 49.9 µM (inactive) in assay [16]; 4.62 µM in assay [17]. In [18], the GI50 was 20 µM (inactive).
Take `COc1cc(C2CC(C)(N3CCOCC3)Oc3cc4c(cc32)OCO4)cc(OC)c1OC` (centres undefined): the GI50 in [1] is 2.14 µM (inactive); in assay [2], 0.482 µM (active); in assay [3], > 100 µM (inactive); in [4], 0.167 µM (active); in [5], 0.103 µM (active); in assay [19], 0.0263 µM (active). Further, the GI50 is 0.0726 µM (active) in assay [6]; 0.209 µM (active) in [7]; 0.0748 µM (active) in [8]; 0.2 µM (active) in [10]; 0.116 µM (active) in assay [11]; 0.026 µM (active) in assay [13]. For the same compound, the GI50 in assay [14] is 12.2 µM (inactive); in [15] it was 0.0619 µM (active); in [16] it was 0.458 µM (active); in assay [17], 0.136 µM; in assay [18] it was > 50.1 µM (inactive).
